This is an account of results in paper PMC4139061, “Structural basis of nucleoside and nucleoside drug selectivity by concentrative nucleoside transporters” (eLife, 2014).

The structures appear in SMILES notation. Values joined by “and” are separate entries in the source; they are usually repeats but may differ in a detail not shown here. Identical values can stand only once.

For experiment [1], the target named is T1, vcCNT (Vibrio cholerae, UniProt Q9KPL5). The experiment in a line: biochemical. The format is binding. On the procedure:
The fluorescence anisotropy after each addition was measured. Each titration was performed at least three times. The data for the three titrations were simultaneously fit to a one-site competitive binding model based off of Wang's method ([Wang, 1995]) using nonlinear least-squares analysis in GraphPad Prism to obtain a dissociation constant and standard error.

For another experiment, the system named is hCNTs. As to conditions: cited from earlier work.
Another experiment has as its target T2, hCNT3 (Homo sapiens, UniProt Q9HAS3).
T2 sequence (Q9HAS3 1-691): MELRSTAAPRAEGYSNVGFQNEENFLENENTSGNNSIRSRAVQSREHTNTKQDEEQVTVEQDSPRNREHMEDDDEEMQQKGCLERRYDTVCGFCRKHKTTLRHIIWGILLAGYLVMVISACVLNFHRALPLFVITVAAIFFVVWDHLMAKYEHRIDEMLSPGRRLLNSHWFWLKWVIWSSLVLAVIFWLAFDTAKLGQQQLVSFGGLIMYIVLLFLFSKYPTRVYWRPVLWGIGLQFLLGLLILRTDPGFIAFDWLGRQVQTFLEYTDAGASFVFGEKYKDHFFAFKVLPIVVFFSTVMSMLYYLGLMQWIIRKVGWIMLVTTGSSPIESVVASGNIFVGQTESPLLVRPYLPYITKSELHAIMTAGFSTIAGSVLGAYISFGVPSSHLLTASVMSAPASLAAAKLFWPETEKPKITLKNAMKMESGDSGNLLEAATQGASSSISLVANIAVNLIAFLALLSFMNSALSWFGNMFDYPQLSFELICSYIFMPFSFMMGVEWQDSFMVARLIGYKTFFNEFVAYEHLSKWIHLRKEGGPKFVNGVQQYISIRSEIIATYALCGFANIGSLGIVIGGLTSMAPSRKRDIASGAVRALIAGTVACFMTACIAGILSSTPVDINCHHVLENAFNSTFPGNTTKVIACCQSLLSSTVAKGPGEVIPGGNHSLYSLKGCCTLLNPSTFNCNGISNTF
The experiment in a line: two-electrode voltage-clamp of Na+ currents / total charge in Xenopus oocytes expressing hCNT3. The experiment is classed as cell-based. From the text:
(§1) To detect nucleoside transport by hCNTs, we turned to two-electrode voltage-clamp electrophysiological recording. Because hCNTs are Na^+-nucleoside symporters, one can measure the current generated by the Na^+ transport that is coupled with nucleoside transport. We injected Xenopus oocytes with mRNA coding for each of the hCNTs and measured inward Na^+ currents elicited by the addition of different nucleosides to the extracellular side.
(§2) The genes coding for the three hCNTs and vcCNT were cloned into a pGEM-HE vector. Plasmids were linearized using either SphI or NheI, and mRNA was transcribed using the mMESSAGE mMACHINE T7 Transcription Kit (Ambion, Grand Island, NY). Defolliculated Xenopus laevis oocytes were purchased from Ecocyte Bioscience (Austin, TX). Individual oocytes were injected with 40 ng of mRNA using a 10-μl microdispenser (Drummond Scientific, Broomall, PA) fitted with a tapered glass pipette tip and incubated at 17 °C for 4–5 days in ND96 buffer (96 mM NaCl, 2 mM KCl, 1 mM MgCl2, 1.8 mM CaCl2, and 5 mM HEPES pH 7.5) with 0.1% penicillin and streptomycin before recording.
(§3) The oocyte-recording chamber was gravity-perfused with ND96 buffer at a rate of 2 ml/min. Membrane currents were measured using an Oocyte Clamp (OC-725C; Warner Instruments, Hamden, CT). Individual oocytes were penetrated with two microelectrodes filled with 3 M KCl (0.5–1.0 MΩ). All electrophysiological experiments were conducted at room temperature. The OC-725C Oocyte Clamp was computer-interfaced via an Axon Digidata 1550 and controlled by Axoscope software (Molecular Devices, Sunnyvale, CA). The current signals were filtered at 20 Hz and sampled at intervals of 20 ms. The signals were filtered at 0.5 Hz by use of pCLAMP 10.4 software for data presentation. […] Cells were discarded if resting membrane potentials were unstable or more positive than −30 mV. Oocyte membrane potentials were clamped at −90 mV for holding potentials to measure transporter-generated currents. All data are shown as means ± SEM.

The target in another experiment is hCNT3 (375L/446V) (Homo sapiens, UniProt Q9HAS3, L446V/V375L). The experiment in a line: two-electrode voltage-clamp total charge in Xenopus oocytes expressing hCNT3 (375L/446V). The experiment is classed as cell-based. As to conditions: 400 μM nucleoside; hCNT3 (375L/446V)-expressing Xenopus oocytes; mean of Exp. 1-11. From the text: In the paradigm of the alternating-access mechanism of sodium-coupled symporters ([Krishnamurthy et al., 2009]), substrate release is achieved by the transition from the inward-facing occluded to the inward-facing open state (Figure 6C).
(§4) Figure 6. […] (A) Model of hCNT3 nucleo-pocket. […] (B) Model of hCNT1 nucleo-pocket. […] (C) Hypothetical alternating-access mechanism of vcCNT. A cartoon representation of the different conformational states along the transport cycle is depicted. The transport domain (including HP1, HP2, TM4b, and TM7b) and TM6 are shown as cylinders. […] The nucleo-pocket in the inward-occluded conformation (bottom right) is located between TM6 and TM4 and is marked with a green star. The inward-occluded conformation is derived from the crystal structures of vcCNT. All other conformations are purely hypothetical. The transition between inward- and outward-facing conformations has been proposed to be achieved by a rigid-body movement of the transport domain across TM6 ([Johnson et al., 2012]). Extracellular and intracellular gating likely involves slight rearrangements of HP2/TM4b and HP1/TM7b, respectively. […] See Figure 6—source data 1 for total charge source data. DOI: http://dx.doi.org/10.7554/eLife.03604.024 Figure 6—source data 1. Total charge data. Total charge transported (μC) was calculated as the area under the curve of the current trace after application of the indicated nucleoside to hCNT-expressing Xenopus oocytes. Each row represents a separate experiment done using a different oocyte. The ratios of the total charge transported for the nucleosides are shown in the last columns.
The genes coding for the three hCNTs and vcCNT were cloned into a pGEM-HE vector. Plasmids were linearized using either SphI or NheI, and mRNA was transcribed using the mMESSAGE mMACHINE T7 Transcription Kit (Ambion, Grand Island, NY). […]
The oocyte-recording chamber was gravity-perfused with ND96 buffer at a rate of 2 ml/min. Membrane currents were measured using an Oocyte Clamp (OC-725C; Warner Instruments, Hamden, CT). […]

For a further experiment, the target named is hCNT2 (Homo sapiens, UniProt O43868). The experiment in a line: two-electrode voltage-clamp of Na+ currents in Xenopus oocytes expressing hCNT2. The format is cell-based. As to conditions: data not shown.
Description: as §1, §2
The oocyte-recording chamber was gravity-perfused with ND96 buffer at a rate of 2 ml/min. Membrane currents were measured using an Oocyte Clamp (OC-725C; Warner Instruments, Hamden, CT). Individual oocytes were penetrated with two microelectrodes filled with 3 M KCl (0.5–1.0 MΩ). […]
(Two-electrode voltage clamp is typically applied to oocytes expressing channels or transporters.)

In the next experiment the target is hCNT1 (353V/424L) (Homo sapiens, UniProt O00337, L353V/V424L). The experiment in a line: two-electrode voltage-clamp total charge in Xenopus oocytes expressing hCNT1 (353V/424L). The experiment is classed as cell-based. As to conditions: 400 μM nucleoside, hCNT1 (353V/424L)-expressing Xenopus oocytes.
Description: as §4, §2
The oocyte-recording chamber was gravity-perfused with ND96 buffer at a rate of 2 ml/min. Membrane currents were measured using an Oocyte Clamp (OC-725C; Warner Instruments, Hamden, CT). Individual oocytes were penetrated with two microelectrodes filled with 3 M KCl (0.5–1.0 MΩ). All electrophysiological experiments were conducted at room temperature. The OC-725C Oocyte Clamp was computer-interfaced via an Axon Digidata 1550 and controlled by Axoscope software (Molecular Devices, Sunnyvale, CA). The current signals were filtered at 20 Hz and sampled at intervals of 20 ms.

The next experiment has as its target T3, hCNT1 (Homo sapiens, UniProt O00337).
T3 sequence (O00337 1-649): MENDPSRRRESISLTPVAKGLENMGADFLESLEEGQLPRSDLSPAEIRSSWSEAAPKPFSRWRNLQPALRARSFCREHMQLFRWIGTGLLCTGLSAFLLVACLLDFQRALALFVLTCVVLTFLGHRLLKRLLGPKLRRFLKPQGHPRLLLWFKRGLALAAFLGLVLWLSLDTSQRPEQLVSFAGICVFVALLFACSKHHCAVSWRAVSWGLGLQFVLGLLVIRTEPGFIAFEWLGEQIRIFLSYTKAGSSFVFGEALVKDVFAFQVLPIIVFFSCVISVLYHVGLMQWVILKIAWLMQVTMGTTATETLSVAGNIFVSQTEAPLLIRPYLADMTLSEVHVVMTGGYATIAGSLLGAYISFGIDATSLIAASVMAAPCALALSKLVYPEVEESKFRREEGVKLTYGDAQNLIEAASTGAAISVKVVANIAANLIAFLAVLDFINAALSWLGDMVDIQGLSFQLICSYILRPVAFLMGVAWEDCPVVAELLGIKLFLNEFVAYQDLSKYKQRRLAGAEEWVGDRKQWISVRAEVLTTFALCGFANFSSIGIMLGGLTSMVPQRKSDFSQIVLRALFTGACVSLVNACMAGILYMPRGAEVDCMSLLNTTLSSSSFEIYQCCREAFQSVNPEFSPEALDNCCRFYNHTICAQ
The experiment in a line: two-electrode voltage-clamp of Na+ currents / total charge in Xenopus oocytes expressing hCNT1. As to conditions: 200 μM nucleoside; hCNT1-expressing Xenopus oocytes; mean of Exp. 1-11. The format is cell-based.
Description: as §1, §2, §3

Experiment [2] addresses T1, vcCNT. The experiment in a line: biochemical. As to conditions: KD. The format is binding.

T1 sequence (Q9KPL5 entry or part of it): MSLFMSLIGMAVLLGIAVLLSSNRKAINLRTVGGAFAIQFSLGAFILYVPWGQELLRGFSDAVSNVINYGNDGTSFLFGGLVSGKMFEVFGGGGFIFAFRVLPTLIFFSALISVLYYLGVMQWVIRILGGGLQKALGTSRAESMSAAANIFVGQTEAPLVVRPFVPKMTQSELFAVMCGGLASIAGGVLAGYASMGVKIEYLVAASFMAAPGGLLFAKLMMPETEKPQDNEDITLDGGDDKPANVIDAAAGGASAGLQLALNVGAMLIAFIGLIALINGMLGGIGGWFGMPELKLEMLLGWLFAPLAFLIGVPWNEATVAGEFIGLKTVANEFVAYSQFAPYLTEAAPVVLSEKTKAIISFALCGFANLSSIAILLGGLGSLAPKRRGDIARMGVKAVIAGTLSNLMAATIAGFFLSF
Sequence of hCNT1 (353V/424L) (O00337 whole entry L353V/V424L): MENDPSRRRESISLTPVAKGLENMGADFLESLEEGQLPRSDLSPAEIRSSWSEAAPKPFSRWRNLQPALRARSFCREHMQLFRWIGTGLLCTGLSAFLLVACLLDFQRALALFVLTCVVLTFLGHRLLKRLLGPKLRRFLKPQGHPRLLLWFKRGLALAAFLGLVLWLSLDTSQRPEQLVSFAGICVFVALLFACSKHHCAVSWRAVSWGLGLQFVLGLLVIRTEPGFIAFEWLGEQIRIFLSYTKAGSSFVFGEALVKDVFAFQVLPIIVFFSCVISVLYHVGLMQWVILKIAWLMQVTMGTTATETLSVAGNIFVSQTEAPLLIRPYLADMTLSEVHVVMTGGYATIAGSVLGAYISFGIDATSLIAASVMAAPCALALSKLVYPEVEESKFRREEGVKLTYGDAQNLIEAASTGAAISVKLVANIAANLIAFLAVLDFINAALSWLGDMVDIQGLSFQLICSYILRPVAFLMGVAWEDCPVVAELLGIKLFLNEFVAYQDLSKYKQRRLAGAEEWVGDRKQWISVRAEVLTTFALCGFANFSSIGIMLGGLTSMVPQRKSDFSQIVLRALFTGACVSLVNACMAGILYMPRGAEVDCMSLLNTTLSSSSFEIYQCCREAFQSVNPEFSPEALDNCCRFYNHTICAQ
Sequence of hCNT2 (O43868 whole entry): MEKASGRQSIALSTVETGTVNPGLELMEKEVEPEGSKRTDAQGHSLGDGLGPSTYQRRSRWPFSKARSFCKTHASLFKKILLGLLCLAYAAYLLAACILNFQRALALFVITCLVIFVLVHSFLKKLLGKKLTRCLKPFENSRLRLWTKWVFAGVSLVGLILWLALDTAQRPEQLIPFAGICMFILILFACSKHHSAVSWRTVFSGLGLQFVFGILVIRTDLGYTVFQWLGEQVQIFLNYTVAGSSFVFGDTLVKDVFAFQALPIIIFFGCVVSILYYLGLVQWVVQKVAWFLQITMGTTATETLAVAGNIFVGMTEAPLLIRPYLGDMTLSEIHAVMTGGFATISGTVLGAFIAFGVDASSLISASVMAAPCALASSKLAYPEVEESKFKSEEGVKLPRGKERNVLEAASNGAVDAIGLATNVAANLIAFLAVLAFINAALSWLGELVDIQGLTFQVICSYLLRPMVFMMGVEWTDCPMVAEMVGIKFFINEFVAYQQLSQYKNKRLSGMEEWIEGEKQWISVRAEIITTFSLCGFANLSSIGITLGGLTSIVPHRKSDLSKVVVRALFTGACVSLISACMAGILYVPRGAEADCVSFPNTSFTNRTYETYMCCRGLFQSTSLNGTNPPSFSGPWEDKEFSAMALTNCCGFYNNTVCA
Sequence of hCNT3 (375L/446V) (Q9HAS3 whole entry V375L/L446V, the tested form may be a part): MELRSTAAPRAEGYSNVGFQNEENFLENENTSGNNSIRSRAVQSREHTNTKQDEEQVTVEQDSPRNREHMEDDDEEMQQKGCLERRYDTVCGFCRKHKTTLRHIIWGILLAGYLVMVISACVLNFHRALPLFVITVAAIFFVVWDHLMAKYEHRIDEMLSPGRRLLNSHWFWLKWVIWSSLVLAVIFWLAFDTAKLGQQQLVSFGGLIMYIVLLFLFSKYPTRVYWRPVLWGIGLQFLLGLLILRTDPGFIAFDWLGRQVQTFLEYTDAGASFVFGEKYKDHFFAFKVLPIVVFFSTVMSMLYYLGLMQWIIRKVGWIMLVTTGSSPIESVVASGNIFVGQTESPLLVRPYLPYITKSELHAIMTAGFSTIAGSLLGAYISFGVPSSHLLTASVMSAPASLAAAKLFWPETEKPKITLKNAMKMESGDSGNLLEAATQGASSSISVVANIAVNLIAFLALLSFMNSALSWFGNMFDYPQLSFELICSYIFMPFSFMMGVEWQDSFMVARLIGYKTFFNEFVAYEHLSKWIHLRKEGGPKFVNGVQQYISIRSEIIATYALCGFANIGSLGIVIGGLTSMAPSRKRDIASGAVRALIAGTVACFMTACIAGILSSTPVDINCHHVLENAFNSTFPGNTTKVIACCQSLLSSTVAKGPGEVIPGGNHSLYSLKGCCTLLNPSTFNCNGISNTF

On to `O=c1ccn([C@H]2C[C@H](O)[C@@H](CO)O2)c(=O)[nH]1` [2′-deoxyuridine], for which, on vcCNT [1], the Kd (in general, a measure of binding affinity in units of concentration) worked out at 170 ± 10 µM.

Consider `Cn1c(=O)ccn([C@@H]2O[C@H](CO)[C@@H](O)[C@H]2O)c1=O` [3-methyluridine], for which the Kd on vcCNT [1] amounted to 520 ± 80 µM.

`O=c1ccn([C@@H]2O[C@H](CO)C[C@H]2O)c(=O)[nH]1` [3′-deoxyuridine] yielded an equilibrium dissociation constant (Kd) on vcCNT [1] of over 2800 µM.

Turning to `C[C@H]1O[C@@H](n2ccc(=O)[nH]c2=O)[C@H](O)[C@@H]1O` [5'-deoxyuridine], the dissociation constant Kd on vcCNT [1] was over 2800 µM.

In the case of `O=c1[nH]c(=O)n([C@@H]2O[C@H](CO)[C@@H](O)[C@H]2O)cc1Cl` [5-chlorouridine], at vcCNT [1], the affinity, expressed as Kd, was 14 ± 1 µM.

Take `O=c1[nH]c(=O)n([C@@H]2O[C@H](CO)[C@@H](O)[C@H]2O)cc1F` [5-fluorouridine]: at vcCNT [1], binding was characterised by a dissociation constant (Kd) of 16 ± 1 µM. The “KD lower than the KD for uridine” value on vcCNT [1] (fold, vcCNT) is recorded as “twofold”.

With `O=c1[nH]c(=O)n([C@@H]2O[C@H](CO)[C@@H](O)[C@H]2O)cc1I` [5-iodouridine], binding on vcCNT [1] was characterised by a dissociation constant (Kd) of 58 ± 5 µM.

At vcCNT [1], `Cc1cn([C@@H]2O[C@H](CO)[C@@H](O)[C@H]2O)c(=O)[nH]c1=O` [5-methyluridine] had a dissociation constant Kd of 61 ± 7 µM.

On to `Nc1ncnc2c1ncn2[C@@H]1O[C@H](CO)[C@@H](O)[C@H]1O` [adenosine], for which the Kd at vcCNT [1] worked out at 470 ± 100 µM.

Turning to `Nc1ccn([C@@H]2O[C@H](CO)[C@@H](O)[C@@H]2O)c(=O)n1` [cytarabine], in the experiment with hCNTs (ref Clarke et al., 2006), the “binding and transport by hCNTs” value is “no significant binding and transport”.

Consider `Nc1ccn([C@@H]2O[C@H](CO)[C@@H](O)C2(F)F)c(=O)n1` [gemcitabine], for which the “Total charge transported, Mean” value on hCNT3 (200 μM nucleoside, hCNT3-expressing Xenopus oocytes, mean of Exp. 1-14) came out at 7.084 μC; at hCNT3 (375L/446V), 5.697 μC; on hCNT1 (353V/424L) (mean of Exp. 1-8), 0.692 μC; on hCNT1, 0.127 μC. For the same compound, the “Na+ current on addition of nucleoside” value at hCNT3 (hCNT3-expressing oocytes, 200 μM) is “induced Na^+ currents”. Moreover, the “KD higher than that for cytidine” value at vcCNT [1] is on record as about 22 fold. Besides, the “transport by hCNT2” value on hCNT2 is “transported neither compound”. Further, the Total charge transported at hCNT1 (353V/424L) (single oocyte, listed as Gem) is 0.743 μC and 0.542 μC and 0.572 μC and 0.858 μC and 0.563 μC and 0.586 μC and 0.813 μC.

As for `Cc1cc2cn([C@@H]3O[C@H](CO)[C@@H](O)[C@H]3O)c(=O)nc2[nH]1` [pyrrolo-cytidine, reference compound], the Kd at vcCNT [2] was 900 nM and 940 nM.

Take `NC(=O)c1ncn([C@@H]2O[C@H](CO)[C@@H](O)[C@H]2O)n1` [ribavirin]: the Kd on vcCNT [1] was 1530 µM.

Regarding `O=c1ccn([C@@H]2O[C@H](CO)[C@@H](O)[C@H]2O)c(=O)[nH]1` [uridine], the Km (usually the concentration of substrate that gives half-maximal velocity) with hCNTs (reported Km values, ref Molina-Arcas et al., 2009) was 22 to 80 µM.

`O=c1ncccn1[C@@H]1O[C@H](CO)[C@@H](O)[C@H]1O` [zebularine] yielded a dissociation constant (Kd) on vcCNT [1] of 120 ± 5 µM. Moreover, on vcCNT [1] (fold, vcCNT), the “loss of binding affinity relative to uridine” value is recorded as “threefold”.
